# Test results: US20260295053A1, “COMPOUNDS FOR DEGRADATION AND INHIBITION OF KRAS (G12D) PROTEIN” (Shenzhen Ionova Life Science Co., Ltd., priority 2023, published 2026)
# Target: T1, KRAS (G12D) (Homo sapiens, UniProt P01116, G12D)
# T1 construct: in-cell western with KRAS G12D antibody after 24 h
# Assay: KRAS (G12D) cellular degradation assay in AsPC-1 cells
# Type: cell-based
# Details: 24 hours, antibody fluorescence (Odyssey CLX), DC50 half-maximal degradation concentration
# Method in brief: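 Proliferation IC50 comes from CellTiter Glo luminescence after 6 days' exposure of AsPC-1 (3,500 cells/well) to 1:3 dilutions from […] to 1.5 nM. KRAS G12D DC50 derives from in-cell immunofluorescence normalised to β-actin after 24 h treatment of near-confluent AsPC-1 cells over the same range.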
# T1 sequence (P01116 1-188 isoform P01116-2 G12D): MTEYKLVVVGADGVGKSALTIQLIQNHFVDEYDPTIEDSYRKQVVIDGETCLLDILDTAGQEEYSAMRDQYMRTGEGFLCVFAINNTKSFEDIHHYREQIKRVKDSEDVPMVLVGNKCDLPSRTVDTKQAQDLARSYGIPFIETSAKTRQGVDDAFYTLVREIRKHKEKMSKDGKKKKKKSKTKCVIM
row,DC50,SMILES
1,10 to 100 nM,"CO[C@@H](C)COc1nc(N2C[C@@H]3CN[C@@H](C3)C2)c2cc(C3CC3)c(-c3c(C)c(F)cc4[nH]ncc34)c(OCc3ccc(-c4cn([C@H](C(=O)N5C[C@H](O)C[C@H]5C(=O)N[C@@H](CO)c5ccc(-c6scnc6C)cc5)C(C)C)nn4)cc3)c2n1 [Example 230, (2S,4R)-1-((2S)-2-(4-(4-(((4-((1S,5S)-3,6-diazabicyclo[3.2.1]octan-3-yl)-6-cyclopropyl-7-(6-fluoro-5-methyl-1H-indazol-4-yl)-2-((S)-2-methoxypropoxy)quinazolin-8-yl)oxy)methyl)phenyl)-1H-1,2,3-triazol-1-yl)-3-methylbutanoyl)-4-hydroxy-N—((R)-2-hydroxy-1-(4-(4-methylthiazol-5-yl)phenyl)ethyl)pyrrolidine-2-carboxamide]"
2,10 to 100 nM,"Cc1ncsc1-c1ccc([C@H](CO)NC(=O)[C@@H]2C[C@@H](O)CN2C(=O)[C@H](C(C)C)n2cc(-c3ccc(COc4c(-c5c(C)c(F)c(F)c6[nH]ncc56)c(C5CCC5)cc5c(N6C[C@@H]7C[C@H]6CN7)nc(OC6CCOCC6)nc45)cc3)nn2)cc1 [Example 120, (2S,4R)-1-((2S)-2-(4-(4-(((4-((1S,4S)-2,5-diazabicyclo[2.2.1]heptan-2-yl)-6-cyclobutyl-7-(6,7-difluoro-5-methyl-1H-indazol-4-yl)-2-((tetrahydro-2H-pyran-4-yl)oxy)quinazolin-8-yl)oxy)methyl)phenyl)-1H-1,2,3-triazol-1-yl)-3-methylbutanoyl)-4-hydroxy-N—((R)-2-hydroxy-1-(4-(4-methylthiazol-5-yl)phenyl)ethyl)pyrrolidine-2-carboxamide]"
3,< 10 nM,"CO[C@H]1CC[C@H](Oc2nc(N3C[C@@H]4C[C@H]3CN4)c3cc(C4CC4)c(-c4c(C)c(F)cc5[nH]ncc45)c(OCc4ccc(-c5cn([C@H](C(=O)N6C[C@H](O)C[C@H]6C(=O)N[C@H](c6ccc(-c7scnc7C)cc6)[C@H](C)O)C(C)C)nn5)cc4)c3n2)C1 [Example 215, (2S,4R)-1-((2S)-2-(4-(4-(((4-((1S,4S)-2,5-diazabicyclo[2.2.1]heptan-2-yl)-6-cyclopropyl-7-(6-fluoro-5-methyl-1H-indazol-4-yl)-2-(((1S,3S)-3-methoxycyclopentyl)oxy)quinazolin-8-yl)oxy)methyl)phenyl)-1H-1,2,3-triazol-1-yl)-3-methylbutanoyl)-4-hydroxy-N-((1R,2S)-2-hydroxy-1-(4-(4-methylthiazol-5-yl)phenyl)propyl)pyrrolidine-2-carboxamide]"
4,10 to 100 nM,"CCn1nccc1-c1ccc([C@H](CO)NC(=O)[C@@H]2C[C@@H](O)CN2C(=O)[C@H](C(C)C)n2cc(-c3ccc(COc4c(-c5c(C)c(F)c(F)c6[nH]ncc56)c(C5CCC5)cc5c(N6C[C@@H]7C[C@H]6CN7)nc(OC[C@H](C)OC)nc45)cc3)nn2)cc1 [Example 106, (2S,4R)-1-((2S)-2-(4-(4-(((4-((1S,4S)-2,5-diazabicyclo[2.2.1]heptan-2-yl)-6-cyclobutyl-7-(6,7-difluoro-5-methyl-1H-indazol-4-yl)-2-((S)-2-methoxypropoxy)quinazolin-8-yl)oxy)methyl)phenyl)-1H-1,2,3-triazol-1-yl)-3-methylbutanoyl)-N—((R)-1-(4-(1-ethyl-1H-pyrazol-5-yl)phenyl)-2-hydroxyethyl)-4-hydroxypyrrolidine-2-carboxamide]"
5,10 to 100 nM,"CO[C@@H](C)COc1nc(N2C[C@@H]3C[C@H]2CN3)c2cc(C3CC3)c(-c3c(C)c(F)cc4[nH]ncc34)c(OCc3ccc(-c4cn([C@H](C(=O)N5C[C@H](O)C[C@H]5C(=O)N[C@H](C#Cc5cccc6c5cnn6C)CO)C(C)C)nn4)cc3)c2n1 [Example 134, (2S,4R)-1-((2S)-2-(4-(4-(((4-((1S,4S)-2,5-diazabicyclo[2.2.1]heptan-2-yl)-6-cyclopropyl-7-(6-fluoro-5-methyl-1H-indazol-4-yl)-2-((S)-2-methoxypropoxy)quinazolin-8-yl)oxy)methyl)phenyl)-1H-1,2,3-triazol-1-yl)-3-methylbutanoyl)-4-hydroxy-N—((R)-1-hydroxy-4-(1-methyl-1H-indazol-4-yl)but-3-yn-2-yl)pyrrolidine-2-carboxamide]"
6,< 10 nM,"CCn1nccc1-c1ccc([C@H](CO)NC(=O)[C@@H]2C[C@@H](O)CN2C(=O)[C@H](C(C)C)n2cc(-c3ccc(COc4c(-c5c(C)c(F)cc6[nH]ncc56)c(C5CC5)cc5c(N6CCC(O)CC6)nc(OC[C@H](C)OC)nc45)cc3)nn2)cc1 [Example 217, (2S,4R)-1-((2S)-2-(4-(4-(((6-cyclopropyl-7-(6-fluoro-5-methyl-1H-indazol-4-yl)-4-(4-hydroxypiperidin-1-yl)-2-((S)-2-methoxypropoxy)quinazolin-8-yl)oxy)methyl)phenyl)-1H-1,2,3-triazol-1-yl)-3-methylbutanoyl)-N—((R)-1-(4-(1-ethyl-1H-pyrazol-5-yl)phenyl)-2-hydroxyethyl)-4-hydroxypyrrolidine-2-carboxamide]"
7,10 to 100 nM,"CO[C@@H](C)COc1nc(N(C)[C@H]2CCNC2)c2cc(C3CCC3)c(-c3c(C)c(F)c(F)c4[nH]ncc34)c(OCc3ccc(-c4cn([C@H](C(=O)N5C[C@H](O)C[C@H]5C(=O)N[C@H](c5ccc(-c6scnc6C)cc5)[C@@H](C)O)C(C)C)nn4)cc3)c2n1 [Example 175, (2S,4R)-1-((2S)-2-(4-(4-(((6-cyclobutyl-7-(6,7-difluoro-5-methyl-1H-indazol-4-yl)-2-((S)-2-methoxypropoxy)-4-(methyl((S)-pyrrolidin-3-yl)amino)quinazolin-8-yl)oxy)methyl)phenyl)-1H-1,2,3-triazol-1-yl)-3-methylbutanoyl)-4-hydroxy-N-((1R,2R)-2-hydroxy-1-(4-(4-methylthiazol-5-yl)phenyl)propyl)pyrrolidine-2-carboxamide]"
8,> 1000 nM,"CCn1nccc1-c1ccc([C@H](CO)NC(=O)[C@@H]2C[C@@H](O)CN2C(=O)[C@H](C(C)C)n2cc(-c3ccc(COc4c(-c5c(C)c(F)cc6[nH]ncc56)c(C5CC5)cc5c(N6C[C@H]7C[C@@H]6CN7)nc(OC6CCOCC6)nc45)cc3)nn2)cc1 (single isomer, unassigned) [Example 16B]"

row,SMILES,DC50
1,"CCn1ncc2cccc(C#C[C@H](CO)NC(=O)[C@@H]3C[C@@H](O)CN3C(=O)[C@H](C(C)C)n3cc(-c4ccc(COc5c(-c6c(C)c(F)cc7[nH]ncc67)c(C6CC6)cc6c(N7C[C@@H]8C[C@H]7CN8)nc(O[C@H]7C[C@H](OC)C7)nc56)cc4)nn3)c21 [Example 172, (2S,4R)-1-((2S)-2-(4-(4-(((4-((1S,4S)-2,5-diazabicyclo[2.2.1]heptan-2-yl)-6-cyclopropyl-7-(6-fluoro-5-methyl-1H-indazol-4-yl)-2-((1r,3S)-3-methoxycyclobutoxy)quinazolin-8-yl)oxy)methyl)phenyl)-1H-1,2,3-triazol-1-yl)-3-methylbutanoyl)-N—((R)-4-(1-ethyl-1H-indazol-7-yl)-1-hydroxybut-3-yn-2-yl)-4-hydroxypyrrolidine-2-carboxamide]",10 to 100 nM
